Laboratory results as given in patent publication US8965708B2, “Method for the treatment of acquired lymphedema” (The Board of Trustees of the Leland Stanford Junior …, priority 2006, dated 2015).
Entries after “also recorded” stand apart in the source; their conditions may differ.

Key:
[1] = system: CD11B+ cells and CD4+ helper T cells in affected tissue; experiment: Human study: immunohistochemistry of CD11b+ and CD4+ cell infiltrates in biopsies; assay type: in vivo; conditions: 4th clinical follow up visit
Method: FIG. 26. […] 3 samples from each patient were analyzed by paired analysis: NL (biopsy from an unaffected limb), 1-LY (biopsy from affected limb), and 4-LY (4th clinical follow up visit).
FIG. 29. Quantification of CD4+ helper T cell involvement in lymphedema pathology. 3 samples from each patient were analyzed by paired analysis: NL (biopsy from an unaffected limb), 1-LY (biopsy from affected limb), and 4-LY (4th clinical follow up visit).
To determine the cellular basis for the lymphedema pathology, lymphedemous tissue was analyzed for the aberrant presence of immune cells.

[2] = system: tail lymphedema in SKH-1 mice; experiment: Histology and histomorphometric quantitation of epidermal thickness (Example 4); assay type: in vivo, mouse; conditions: for histological changes in mice with lymphedema: hematoxylin/eosin
Method: Immediately after sacrifice, 0.5-g sections of tail were harvested for histological analysis and RNA extraction. Sections extended from a point 4 mm proximal to the surgical incision to 8 mm beyond it. The specimens were fixed overnight in 4% paraformaldehyde, embedded in paraffin, cut into 5-μm sections, stained with hematoxylin and eosin (Richard-Allan Scientific, Kalamazoo, Mich.), and examined by light microscopy.
Epidermal thickness was measured serially using digital images of histology slides stained with hematoxylin and eosin. Processing and analysis were performed using Adobe Photoshop CS4 and ImageJ (http://rsbweb.nih.gov/ij) as previously described with modifications (Sanders J E, et al. Comput Methods Programs Biomed. 1999; 59:167-180). Quantitative measurements were imported to Prism 5 software (GraphPad Software Inc., La Jolla, Calif.) for statistical analysis and graphing.

CD30 and IgE levels = experiment: Human study: serum analysis of CD30 and IgE; assay type: in vivo; conditions: pre to post treatment
[3] = system: gene expression in lymphedemous tissue; experiment: Paired whole genome transcriptional profiling of human lymphedema (Agilent human array); assay type: in vivo; conditions: of the 8431 genes altered in lymphedema versus normal tissue
Method: Paired whole genome transcriptional profiling was performed using the Agilent human array (n=30). Expression profiles of untreated and post-treated lymphedemous tissue were compared to the normal cutaneous RNA from the same subject.

[4] = system: TNF-α, MCP-1, VEGF-C, VEGF-D, VEGFR-3, Prox1, LYVE-1 expression; experiment: Targeted gene expression analysis by quantitative real-time RT-PCR in tail skin; assay type: in vivo, mouse
Method: Primers and probes were from Assays-on-Demand (Applied Biosystems, Foster City, Calif.). cDNA was synthesized from 5 μg of total RNA with Taqman reverse-transcription reagents (Applied Biosystems) and amplified in triplicate at 50° C. for 2 minutes and 95° C. for 10 minutes, followed by 40 cycles of 95° C. for 15 seconds and 60° C. for 1 minute. Reactions without template and/or enzyme were used as negative controls. 18S ribosomal RNA served as an internal control. A standard curve derived from embryonic mouse RNA was plotted for each target gene by linear regression using SPSS software (v. 11.0, Applied Biosystems). RNA quantity was expressed relative to the corresponding 18S control. Fold differences were calculated by dividing the experimental results by the pooled normal results and were plotted on a log 10 scale.

Log Kow = assay type: physicochemical
patients with lymphedema [5] = experiment: Human study: participant outcomes following the clinical trial; assay type: in vivo
patients with lymphedema [6] = experiment: Human study: histology of cutaneous biopsies (Hematoxylin and Eosin, Sirius Red); assay type: in vivo; conditions: 90 days / 3 months after start of treatment
Source text: FIG. 24. Tissue architecture before and after ketoprofen treatment. (A) Cutaneous biopsies stained with Hematoxylin and Eosin. (B) Cutaneous biopsies stained with Hoechst. “Normal”: unaffected contralateral limb. “Lymphedema, Pre-Rx”: affected tissue at the start of treatment. “Lymphedema post-Rx”: affected tissue 90 days following treatment.
FIG. 25. […] Fibrotic response (thickening tissue, collagen deposition in dermis and subdermis) is quantified by measuring the mean pixel intensity of Sirius Red uptake. […] In lymphedemous tissue (LY), an increase in fibrotic tissue is observed. Three months after the start of treatment (Rx/NL), the tissue has returned to a healthy state. Y axis is the ratio of paired samples. “NL/NL”: fibrosis in unaffected tissue, normalized to the pixel intensity of Sirius Red uptake in the unaffected tissue. “LY/NL”: fibrosis at the start of treatment, normalized to the pixel intensity of Sirius Red uptake in the unaffected tissue. “Rx/NL”: fibrosis after 3 months treatment, normalized to the pixel intensity of Sirius Red uptake in the unaffected tissue.
Biopsies were taken pre- and post-treatment, and clinical responses were reassessed monthly. 44 participants were enrolled (FIG. 22), 38 of which had completed the study at the time the data was collected. Average age of the patient was 57 years+/−14 years (24-85 years of age). […]

[7] = Mass spectrometry of ketoprofen in tissue following topical administration; assay type: in vivo, mouse; conditions: topical preparation delivered daily to mice; mass spectrometry of biopsy
[8] = system: cytokine levels in tail skin; experiment: Tissue cytokine assays (Luminex) in tail skin homogenates; assay type: in vivo, mouse
Method: Cytokine levels in tail skin were measured in normal controls and mice with untreated, NSAID-treated, and sTNF-R1-treated lymphedema (n=3 per group) sacrificed on postoperative day 7. The Luminex LabMap200 System was used to measure the levels of 42 cytokines from the supernatant of tissue homogenates. Multiplex cytokine kits were purchased from Panomics (Fremont, Calif.), and the assay was performed according to the manufacturer's recommendation with the following modifications: 25-50 μl of samples, standards, and controls were added in duplicate to 96-well filter plates pre-configured with a panel of anti-cytokine antibodies covalently linked to unique polystyrene beads. The plate was incubated overnight at 4° C. in the dark with shaking at 500 rpm, vacuum aspirated, and washed three times with 140 μl of wash buffer to remove unbound antigen. Biotinylated detection antibody solution (25 μl) was added to each well and incubated for 1 hour with shaking at 500 rpm at room temperature. The plate was incubated with 50 μl of streptavidin-phycoerythrin for 35 minutes and then with 120 μl of reading buffer for 3 minutes at room temperature with shaking. After laser excitation, digital images of the bead array were captured with a CCD camera and analyzed on a computer workstation with BeadView software.

patients with lymphedema [9] = experiment: Human study: volume of fluid lost from affected limb after 90 days ketoprofen; assay type: in vivo; conditions: 75 mg orally twice or three times per day for 90 days
Method: FIG. 23. […] For the purposes of comparing bilateral results to unilateral results, volume lost in bilateral lymphedema was calculated by determining the total volume lost and dividing by 2.
Biopsies were taken pre- and post-treatment, and clinical responses were reassessed monthly. 44 participants were enrolled (FIG. 22), 38 of which had completed the study at the time the data was collected. Average age of the patient was 57 years+/−14 years (24-85 years of age). The average length of time that the patient had had lymphedema was 10+/−10 years (0.5-40 years). Lymphedema was due to the following: breast cancer (12 patients (27.3%)); cervical cancer (6 patients (13.6%)); uterine cancer (2 patients (4.5%)); ovarian cancer (2 patients (4.5%)); penile cancer (1 patient (2.3%)); Hodgkin's lymphoma (2 patients (4.5%)); trauma (5 patients (11.4%)); infection (3 patients (6.8%)); venous insufficiency (3 patients (6.8%)); May-Thurner syndrome (2 patients (4.5%)); primary lymphedema ([…]); other (2 patients (4.5%)).

[10] = day 11, lymphedema mice, listed as NSAID
[11] = lymphedema mice, listed as NSAID
[12] = postoperative day 7, listed as NSAID

In the case of CC(C(=O)O)c1cccc(C(=O)c2ccccc2)c1 (stereo not shown) [ketoprofen], the “CD4+ cells in affected tissue after treatment” value [1] is reported as “absent”, the “CD11B+ cells in affected tissue after treatment” value [1] is reported as “absent; also recorded: returns CD11b counts to normal” and the “epidermal thickness (ET) compared to untreated LY mice” value ([2]; FIG. 14B) is reported as “significantly reduced”. For the same compound, the “epidermal thickness decreased, compared to untreated lymphedema mice” value ([2]; day 11) was 47.0±5.1%, the “histological changes in mice with lymphedema” value ([2]; day 11) was “substantial normalization from the untreated histology” and the “histological changes in mice with lymphedema” value ([2]; day 11, listed as NSAID) was “normalization of histological changes; also recorded: normalizes these pathological findings”. For the same compound, the “serum CD30 amounts, average decrease after treatment” value (CD30 and IgE levels) was 13%, the “fraction of altered genes displaying directional normalization after treatment” value [3] was 72% and the “number of genes displaying directional normalization after treatment” value [3] was 6050. For the same compound, the Prox1 expression ([4]; day 11, lymphedema mice) was “significant, parallel up-regulation”, the “TNF-α expression (mRNA)” value ([4]; day 11, lymphedema mice) was “further increased” and the “MCP-1 expression (mRNA)” value [4, 10] was “significantly induced”. For the same compound, the Prox1 expression [4, 10] was “significantly induced”, the “TNF-α expression (mRNA)” value [4, 10] was “significantly induced” and the “VEGF-C expression (mRNA)” value ([4]; lymphedema mice) was “significant upregulation”. For the same compound, the VEGFR-3 expression ([4]; lymphedema mice) was “significantly upregulated”, the “VEGF-C expression (mRNA)” value [4, 11] was “significant, parallel up-regulation; also recorded: significantly induced” and the VEGFR-3 expression [4, 11] was “significant, parallel up-regulation; also recorded: significantly induced”. The “VEGF-D expression (mRNA)” value ([4]; lymphedema mice, vs vehicle) was “significant upregulation”, the “Log Kow” value (Log Kow) was 3.00 and the “participants who describe the affected limb as normal in size” value (patients with lymphedema [5]) was 2%. The “participants who described relief from pain” value (patients with lymphedema [5]) was 7%, the “participants who discontinued chronic use of compression garments” value (patients with lymphedema [5]) was 9% and the “participants who elected to continue off-label treatment” value (patients with lymphedema [5]) was 100%. For the same compound, the “participants who noted that the affected limb feels lighter” value (patients with lymphedema [5]) was 7%, the “participants who noted that the compression garment is loose” value (patients with lymphedema [5]) was 2% and the “tissue architecture, protein deposition and fibrosis in cutaneous biopsies” value (patients with lymphedema [6]) was “reversal of disease-associated protein deposition and fibrosis; also recorded: restoration in the tissue architecture; also recorded: abrogates the inflammation that leads to a fibrotic response in the skin”. For the same compound, the “permeation of topically administered drug into skin layers” value [7] was “permeates into the deepest layers of the skin”, the “MCP-1 tissue levels (protein)” value ([8]; postoperative day 7) was “further increased” and the “MCP-3 tissue levels (protein)” value [8, 12] was “significantly reduced; also recorded: inhibited”. The “macrophage inflammatory protein 1a (MIP1a) tissue levels” value [8, 12] was “inhibited”, the “TNF-α tissue levels (protein)” value ([8]; postoperative day 7, median fluorescence intensity) was “significantly higher” and the “fluid lost from the affected limb, unilateral lymphedema (average)” value (patients with lymphedema [9]) was 354 milliliters. The “fluid lost from one affected limb, bilateral lymphedema (average)” value (patients with lymphedema [9]; total volume lost divided by 2) was 533 milliliters.
